The values that follow come from patent US20020045780A1, “Biologically active spermidine analogues, pharmaceutical compositions and methods of treatment” (priority 1997, published 2002).

Data set [1] deals with L1210 cells. As to the kind of experiment: L1210 growth inhibition, IC50 determination. In kind it is cell-based, murine. The protocol: Murine L1210 leukemia cells (ATCC CCL 219) were maintained in logarithmic growth in RPMI-1640 medium containing 10% fetal calf serum or a semi-synthetic equivalent, NuSerum, 2% HEPES-MOPS buffer and 1 mM aminoguanidine.
Data set [2] is described as follows: Acute toxicity in mice (single i.p. dose). In kind it is in vivo. The settings on record: female, CD-1, mouse, in vivo, ip, mice, single dose i.p., scored two hours after dose, read-out: Acute LD50. The procedure:
In the current study, the acute toxicity of six analogues and the chronic toxicity of two triamines were measured (Table 7). The value of all polyamine LD50s are shown in both mg/kg and mmol/kg for comparison. […] The animals were scored two hours after administration of the drug. It is clear that the acute LD50s for triamine analogues are approximately twice the acute LD50s for the corresponding tetraamine analogues.
(§1) Acute and chronic toxicities were assessed in 10-12 week old CD-1 female mice from Harlan Sprague-Dawley. For acute toxicities, the polyamine analogues were administered in a single i.p. injection to groups of five or six animals at each dose. The animals were scored two hours after administration of the dose. All survivors were further observed for 10 days to assess late onset of toxicity from the single acute dose. In the chronic toxicity regimen, mice were administered polyamine analogue in three i.p. doses per day (t.i.d.) for six days, for a total of eighteen doses per animal. Appetite, weight and overall appearance were monitored daily. […] At least three test groups of 5-6 animals each, representing three different dose levels, were evaluated for each analogue tested. These dose levels were chosen so that at least two groups presented with lethalities, one with a high fraction of lethalities (>0.50, but <1.00).

In data set [3] the test system is spermidine/spermine acetyltransferase (SSAT). As to the kind of experiment: SSAT activity in treated L1210 cells. In kind it is cell-based, murine. The settings on record: L1210, 10 μM at 48 hours (triamine analogues). The source says:
Spermidine/spermine N^1-acetyltransferase activity was based on quantitation of [^14C]-N^1-acetylspermidine formed by acetylation of SPD with [^14C] acetyl coenzyme A according to the method of Libby et al [Biochem. Pharmacol., Vol. 38, supra]. Cells treated with DENSPM were positive controls.

Data set [4] concerns S-adenosylmethionine decarboxylase (AdoMetDC). As to the kind of experiment: AdoMetDC activity in treated L1210 cells. In kind it is cell-based, murine. The settings on record: L1210, 1 μM at 6 hours. In short, it runs like this:
(§2)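 L1210 cells treated with triamines; ODC activity measured at 4 h and AdoMetDC at 6 h as ^14CO2 released from [^14C]-carboxyl-labeled L-ornithine (ODC) or S-adenosyl-L-methionine (AdoMetDC). Untreated cells served as controls and DEHSPM-treated cells as positive controls.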

The next data set relates to mice. In kind it is in vivo. The settings on record: for Chronic toxicity in mice relative to the related tetraamine: ratio of chronic LD50 values, Table 7. The procedure:
In the chronic toxicity regimen, mice were administered the polyamine analogue in three doses per day (t.i.d.) for six days for a total of eighteen injections per animal and observed for 10 days after the final dose for lethalities. […] A similar difference is also observed in the chronic toxicity of DE(3,4).
as §1

In data set [5] the test system is L1210 cells. As to the kind of experiment: Polyamine pool analysis in L1210 cells. The settings on record: for activity at 3 µM / activity at 15 µM / activity at 75 µM / activity at 100 µM / activity at 500 µM: Mus musculus, % of untreated control; for activity at 3 µM / activity at 15 µM / activity at 75 µM: L1210; for activity at 3 µM / activity at 15 µM / Analogue / activity at 75 µM: 48 hours; for Analogue: intracellular amount; for activity at 100 µM / activity at 500 µM: L1210, 48 h. In kind it is cell-based, murine. Summed up: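 Cells were exposed to each analogue for 48 h at two concentrations. Washed pellets were extracted with 0.6 N HClO4 (1 ml/10^7 cells), and polyamines were quantified by HPLC of dansyl derivatives.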

In data set [6] the test system is L1210 cells. The data set can be described thus: Metabolic transformation of polyamine analogues by L1210 cells. In kind it is in vitro ADME, murine. The settings on record: 48 hours; for N-Monodealkylation (result in words): Trihydrochloride. The protocol: The cells were washed twice with cold RPMI-1640, and the pellet was treated with 0.6 N HClO4 (1 ml/10^7 cells). Polyamine contents of the perchloric acid extracts were quantitated by HPLC of the DANSYL derivatives [Bergeron et al, J. Med. Chem., Vol. 37, supra].

Data set [7] concerns ornithine decarboxylase (ODC). The data set can be described thus: ODC activity in treated L1210 cells. In kind it is cell-based, murine. The settings on record: L1210, 1 μM at 4 hours. Summed up: as §2
The test system of data set [8] is polyamine transport apparatus. The data set can be described thus: Competitive uptake determination: inhibition of [3H]spermidine transport into L1210 cells. In kind it is cell-based, murine. The settings on record: analogue inhibition of spermidine transport. Summed up:
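Analogues competed with [3H]spermidine for uptake into L1210 cells. Values are Ki, derived from Lineweaver–Burk analysis as competitive inhibition with respect to spermidine.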

The mark [9] stands for this setting: Mus musculus, L1210, 48 h, L1210, 48 hour exposure, read-out: IC50 48 hour.
Where [10] appears, read: Mus musculus, L1210, 96 h, L1210, 96 hour exposure, read-out: IC50 96 hour.
Where [11] appears, read: mice, i.p. t.i.d. × 6 days, hydrochloride salts.

SMILES strings stand for the structures. Values joined by “and” are separate entries in the source; they are usually repeats but may differ in a detail not shown here. Equal values may be shown once. “Also recorded” adds a separate entry of the source. Where a name gives a salt, the structure may show the parent alone. Read-outs that look alike come from different tables or passages of the source.

Consider `CCNCCCCCNCCCCNCC` [DE(4,5), 3,8,14-Triazahexadecane Trihydrochloride], for which the IC50 in the data set on L1210 cells [1] (L1210, 48 hour exposure, Trihydrochloride, read-out: IC50 48 hour) is 3 to 6 µM; in the data set on L1210 cells [1] (setting [9]), 2 to 6 µM; in the data set on L1210 cells [1] (setting [10]) it was 0.19 to 0.2 µM. Moreover, the values for the LD50 at 2 h in [2] (hydrochloride salts) and in [2] were 555 mg/kg and 1640 µmol/kg, respectively. For the same compound, the “SSAT activity, percent of untreated control” value (“SSAT activity, percent” below) in [3] (Trihydrochloride) is 120% of untreated control and 120 (120) percent of untreated control. The “AdoMetDC activity, percent of untreated control” value (“AdoMetDC activity, percent” below) in data set [4] is listed as 70% of untreated control. The “Chronic LD50 (triamines)” value was found to be 375 mg/kg-day in the data set on mice (setting [11]) and 1.11 mmol/kg/day with mice (mouse, in vivo, ip). Moreover, in the data set with mice (Trihydrochloride), the “Chronic toxicity in mice relative to the related tetraamine” value is “about eight-fold less toxic than the DE(4,5,4); also recorded: greater than ten-fold less toxic than DE(5,4,5)”. Further, the activity at 3 µM in the data set on L1210 cells [5] (3 μM, read-out: Put) came out at 0%; in the data set with L1210 cells [5] (3 μM, read-out: Spd), 47%; in the data set with L1210 cells [5] (3 μM, read-out: Spm) it was 99%. The activity at 15 µM is 0% in the data set on L1210 cells [5] (15 μM, read-out: Put); 18% in the data set with L1210 cells [5] (15 μM, read-out: Spd); 98% in the data set with L1210 cells [5] (15 μM, read-out: Spm). Also, the figures for the Analogue in the data set with L1210 cells [5] (3 μM) and in the data set on L1210 cells [5] (15 μM) were 1.20 nmol/10^6 cells and 3.40 nmol/10^6 cells, respectively. Further, in the data set on L1210 cells [6] (100 μM analogue), the “Parent drug as % of total drug in the cell” value (“Parent drug as %” below) worked out at 100%. Also, the “Parent drug in L1210 cells” value in the data set with L1210 cells [6] (100 μM analogue) turned out to be 4215 pmols/10^6. In addition, in the data set on L1210 cells [6] (100 μM analogue), the “N-Monodealkylation (result in words)” value is given as “do not show significant N-deethylation; also recorded: no N-deethylation”. In addition, in [7], the “ODC activity, percent of untreated control” value (“ODC activity, percent” below) is given as 100% of untreated control. The compound also returned a Ki in data set [8] of 64 µM.
For the compound `CCNCCCCCNCCCCCNCC` [DE(5,5), 3,9,15-Triazaheptadecane Trihydrochloride], the concentration for half-maximal inhibition (IC50) fell in the range of 10 to 12 µM in the data set on L1210 cells [1] (setting [9]) and 0.65 to 0.7 µM with L1210 cells [1] (setting [10]). Besides, the LD50 at 2 h was 500 mg/kg in data set [2] (hydrochloride salts) and 1420 µmol/kg in data set [2]. Also, the “SSAT activity, percent” value in data set [3] was 90% of untreated control. Moreover, the “AdoMetDC activity, percent” value in data set [4] is given as 109% of untreated control. For the same compound, the activity at 15 µM came to 0% in the data set on L1210 cells [5] (15 μM, read-out: Put); 55% in the data set with L1210 cells [5] (15 μM, read-out: Spd); 97% in the data set with L1210 cells [5] (15 μM, read-out: Spm). For the same compound, the activity at 75 µM was 0% with L1210 cells [5] (75 μM, read-out: Put); 23% in the data set with L1210 cells [5] (75 μM, read-out: Spd); 73% with L1210 cells [5] (75 μM, read-out: Spm). For the same compound, the Analogue is recorded as 1.09 nmol/10^6 cells in the data set with L1210 cells [5] (15 μM) and 1.59 nmol/10^6 cells in the data set with L1210 cells [5] (75 μM). Besides, the “Parent drug as %” value in the data set on L1210 cells [6] (75 μM analogue) was 100%. Also, in the data set with L1210 cells [6] (75 μM analogue), the “Parent drug in L1210 cells” value came out at 1585 pmols/10^6. Also, the “N-Monodealkylation (result in words)” value in the data set with L1210 cells [6] (75 μM analogue) is “do not show significant N-deethylation”; in the data set with L1210 cells [6] (75 μM analogue, listed as DE-[6,6]), “no N-deethylation”. Also, the “ODC activity, percent” value in [7] is 100% of untreated control. In data set [8], this compound yielded a Ki of 174 µM.
On to `CCNCCCCNCCCNCC` [DESPD, N^1,N^8-Diethylspermidine Trihydrochloride], for which the IC50 is about 100 µM in the data set on L1210 cells [1] (setting [9]) and 0.6 to 0.8 µM with L1210 cells [1] (setting [10]). In addition, the LD50 at 2 h was over 650 mg/kg in [2] (hydrochloride salts) and over 3220 µmol/kg in data set [2]. For the same compound, in [3], the “SSAT activity, percent” value is given as 1380% of untreated control. The “AdoMetDC activity, percent” value in data set [4] is 68% of untreated control. Also, in the data set with mice (female, CD-1, mouse, in vivo, 15 mg/kg, 3 days), the “Animals died on day 6” value is 4/5. The “Animals died on day 7” value in the data set with mice (female, CD-1, mouse, in vivo, 15 mg/kg, 7 day) is on record as 5/5. Besides, the “Chronic LD50 (triamines)” value in the data set on mice (setting [11]) was determined as 426 mg/kg-day; with mice (mouse, in vivo, ip), 1.37 mmol/kg/day. Besides, the “Chronic toxicity in mice relative to the related tetraamine” value in the data set with mice is on record as “about five times less toxic than DE(3,4,3)”. Besides, the activity at 100 µM in the data set with L1210 cells [5] (100 μM, read-out: Put) was 0%; with L1210 cells [5] (100 μM, read-out: Spd), 5%; in the data set with L1210 cells [5] (100 μM, read-out: Spm) it was 74%. Moreover, the activity at 500 µM with L1210 cells [5] (500 μM, read-out: Put) was found to be 0%; with L1210 cells [5] (500 μM, read-out: Spd) it was 0%; in the data set on L1210 cells [5] (500 μM, read-out: Spm), 55%. For the same compound, the Analogue in the data set on L1210 cells [5] (100 μM) stood at 4.61 nmol/10^6 cells; in the data set with L1210 cells [5] (500 μM) it was 4.20 nmol/10^6 cells. The “Parent drug as %” value with L1210 cells [6] (100 μM analogue) came out at 96.3%. For the same compound, the “Parent drug in L1210 cells” value in the data set with L1210 cells [6] (100 μM analogue) amounted to 4041 pmols/10^6. For the same compound, the “ODC activity, percent” value in [7] is 30% of untreated control. Further, the inhibition constant Ki in [8] amounted to 19.3 µM.

What is called IC50 is the concentration at which inhibition is half-maximal. As a reminder, the LD50 is the dose at which mortality reaches 50%. For orientation: Ki means a dissociation constant, usually derived from enzyme kinetics or from competition with a known ligand. Low values mean a stronger hold on the target, high ones a looser hold on the target.
